Source: patent US7888357B2, “Anti-inflammatory and protein kinase inhibitor compositions and related methods for downregulation of detrimental cellular responses and inhibition of cell death” (Northwestern University, priority 2001, dated 2011)
Entries after “also recorded” stand apart in the source; their conditions may differ. Read-outs that look alike come from different tables or passages of the source.

Legend:
[1] = target: protein kinase C (PKC); experiment: Reconstituted enzyme assay, PKC; format: biochemical, rat
Experimental: (§1) [table] […] The rationale for using BV-2 cells in high throughput screening was the paucity of well-characterized human microglial cell lines, and the relevant activation responses and signaling pathways reflect those seen in human and rodent primary microglial cultures. Compounds were tested for their effects on NO accumulation in conditioned media of LPS-stimulated BV-2 cells by measurement of nitrite production by the Griess assay as a read-out for iNOS activity, as described previously. Stock solutions of compounds were prepared in dimethylsulfoxide (DMSO) or in water. When stock solutions were prepared in DMSO, control wells contained the same final concentration of DMSO as the compound-containing wells. […] Solutions of compounds for cell treatments were diluted to a 10× final concentration by dilution of stock solutions in αMEM media. […] Reconstituted enzyme assays were done as described s. The sources of protein kinases were: bovine heart PKA from Promega, rat brain PKC from Calbiochem, rat CaMKII from New England Biolabs, chicken gizzard MLCK prepared as described, and a p38 MAP kinase kit containing recombinant Xenopus p38-MAPK and its human substrate from Upstate Biotechnology. The catalytic domains of these protein kinases retain a high level of amino acid sequence identity across mammalian species, consistent with the lack of documented major differences across species for the in vitro catalytic activity of a given kinase.

[2] = target: T1, myosin light chain kinase (MLCK) (Gallus gallus, UniProt P11799); experiment: Reconstituted enzyme assay, MLCK; format: biochemical, chicken
T1 construct: chicken gizzard MLCK prepared as described; from tissue; host or cells: chicken gizzard
T1 sequence (P11799 935-1906): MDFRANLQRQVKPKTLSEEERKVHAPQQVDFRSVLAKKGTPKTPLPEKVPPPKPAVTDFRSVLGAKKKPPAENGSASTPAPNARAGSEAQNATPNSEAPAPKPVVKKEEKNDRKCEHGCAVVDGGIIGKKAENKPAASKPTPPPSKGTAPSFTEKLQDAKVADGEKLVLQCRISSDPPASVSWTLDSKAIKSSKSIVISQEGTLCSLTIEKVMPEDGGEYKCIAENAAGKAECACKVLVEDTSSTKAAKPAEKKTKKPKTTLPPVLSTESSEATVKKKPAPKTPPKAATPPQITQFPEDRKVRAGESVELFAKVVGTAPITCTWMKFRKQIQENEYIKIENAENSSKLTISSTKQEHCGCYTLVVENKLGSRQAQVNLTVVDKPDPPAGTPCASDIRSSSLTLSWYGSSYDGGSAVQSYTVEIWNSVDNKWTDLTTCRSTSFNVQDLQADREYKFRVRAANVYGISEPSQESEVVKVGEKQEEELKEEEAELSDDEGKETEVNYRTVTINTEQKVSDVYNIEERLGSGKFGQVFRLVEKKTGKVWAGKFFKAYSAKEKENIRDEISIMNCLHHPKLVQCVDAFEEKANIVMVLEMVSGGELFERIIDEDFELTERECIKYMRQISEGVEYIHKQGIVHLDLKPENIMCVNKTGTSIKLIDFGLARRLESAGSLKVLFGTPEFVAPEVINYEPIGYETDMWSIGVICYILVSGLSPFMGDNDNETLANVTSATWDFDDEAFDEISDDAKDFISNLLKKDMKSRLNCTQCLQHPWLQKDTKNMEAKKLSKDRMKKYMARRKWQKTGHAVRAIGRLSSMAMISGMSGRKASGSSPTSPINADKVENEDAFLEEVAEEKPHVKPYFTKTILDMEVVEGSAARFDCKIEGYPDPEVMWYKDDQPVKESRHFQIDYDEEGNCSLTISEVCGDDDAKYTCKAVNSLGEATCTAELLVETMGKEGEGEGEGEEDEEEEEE
Experimental: as §1

[3] = target: death associated protein kinase (DAPK) (Homo sapiens, UniProt P53355); experiment: Enzyme assay, DAPK; format: biochemical; conditions: for IC50: Table 6, read-out: Inhibition DAPK
Sequence of death associated protein kinase (DAPK) (P53355 whole entry, species assumed): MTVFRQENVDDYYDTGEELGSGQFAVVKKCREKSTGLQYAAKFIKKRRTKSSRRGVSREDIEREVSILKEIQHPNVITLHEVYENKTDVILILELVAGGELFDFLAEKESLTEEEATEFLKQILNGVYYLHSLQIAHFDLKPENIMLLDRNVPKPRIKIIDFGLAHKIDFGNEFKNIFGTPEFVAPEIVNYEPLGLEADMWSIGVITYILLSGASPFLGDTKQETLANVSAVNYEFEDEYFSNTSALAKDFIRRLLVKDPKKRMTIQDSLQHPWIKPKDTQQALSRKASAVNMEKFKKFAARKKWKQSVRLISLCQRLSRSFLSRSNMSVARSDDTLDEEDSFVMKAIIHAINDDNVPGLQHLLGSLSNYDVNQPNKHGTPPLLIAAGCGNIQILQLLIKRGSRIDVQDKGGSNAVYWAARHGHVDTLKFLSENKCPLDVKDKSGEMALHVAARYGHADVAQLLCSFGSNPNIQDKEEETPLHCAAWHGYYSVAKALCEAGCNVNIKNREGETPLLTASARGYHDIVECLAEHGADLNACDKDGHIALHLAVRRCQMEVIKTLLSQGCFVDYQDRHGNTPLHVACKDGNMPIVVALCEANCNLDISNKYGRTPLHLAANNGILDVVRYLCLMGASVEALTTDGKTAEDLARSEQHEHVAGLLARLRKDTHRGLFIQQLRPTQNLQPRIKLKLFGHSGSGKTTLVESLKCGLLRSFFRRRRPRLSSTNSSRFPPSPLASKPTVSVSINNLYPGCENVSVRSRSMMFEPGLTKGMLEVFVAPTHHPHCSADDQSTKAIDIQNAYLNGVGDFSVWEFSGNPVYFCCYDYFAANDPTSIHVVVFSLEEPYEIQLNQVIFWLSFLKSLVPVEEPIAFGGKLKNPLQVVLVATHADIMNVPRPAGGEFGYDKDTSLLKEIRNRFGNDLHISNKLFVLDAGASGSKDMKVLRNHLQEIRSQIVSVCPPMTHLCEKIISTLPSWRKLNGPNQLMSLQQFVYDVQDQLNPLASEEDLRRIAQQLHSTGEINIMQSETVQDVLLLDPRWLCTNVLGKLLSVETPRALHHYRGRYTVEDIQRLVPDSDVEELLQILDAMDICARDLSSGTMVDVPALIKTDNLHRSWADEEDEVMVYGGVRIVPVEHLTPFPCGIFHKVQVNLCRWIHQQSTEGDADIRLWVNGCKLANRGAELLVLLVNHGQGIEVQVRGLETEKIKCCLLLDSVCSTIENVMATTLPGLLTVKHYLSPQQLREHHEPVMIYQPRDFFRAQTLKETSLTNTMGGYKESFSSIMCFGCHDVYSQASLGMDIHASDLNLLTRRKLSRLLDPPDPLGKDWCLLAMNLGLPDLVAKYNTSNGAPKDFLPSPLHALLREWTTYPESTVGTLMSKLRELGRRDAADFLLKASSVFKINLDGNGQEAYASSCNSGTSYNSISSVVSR
Experimental: Therefore, compound MW01-026Z was selected as a starting point for variations on component A (Table 6). […] However, none of the A variations appeared to improve the activity and selectivity profile of CompoundMW01-026Z. (For purposes of illustration, only, component G was maintained throughout as an acyl moiety, while component R2 was varied as shown. All such compositions are available using the synthetic techniques described herein. Enzyme assays were conducted per procedures described elsewhere herein.) A more comprehensive structure activity relationship is summarized in Table 7, below.
With reference to the compositions of Table 3 and the enzyme assay techniques described elsewhere herein, Table 7 provides structural activity relationships observed, in accordance with this invention.

[4] = tested on: Wistar rats at P7; experiment: Hypoxia-ischemia induced brain damage, hemispheric weight; format: in vivo
From the text: Induction of hypoxia-ischemia in postnatal day seven (P7) rats. Hypoxic-ischemic injury in P7 rats was induced using the well-characterized method of unilateral carotid ligation followed by hypoxia. This age is approximately equivalent to the 34 week gestation human infant. Male and female Wistar rats at P7 were removed from the mother and anesthetized with halothane (3.5% for induction and 1.5% for maintenance) 50% oxygen-balance nitrogen delivered via facemask. The right common carotid artery was identified and gently separated from the vagus nerve. The vessel was ligated with double 6-0 silk sutures to ensure cessation of blood flow. […]
Animals were sacrificed by halothane overdose at 7 days after hypoxia. […] Differences in weight between the hypoxic-ischemic and control contralateral hemisphere were calculated for each animal using the formula: 100*(C−I)/C=% damage where I represents the weight of the ipsilateral and C the weight of the contralateral hemisphere.
Data Analysis. All data are expressed as mean±SEM. The degree of hypoxic-ischemic brain injury after treatment with drug or saline is expressed as the percentage of reduction in the tissue weight of the hemisphere ipsilateral to carotid ligation. This was calculated as a ratio of the right (ipsilateral, ischemic) to the left (contralateral, non-ischemic) hemispheric weights as described previously in the literature. […]

[5] = target: T2, CaMKII (Rattus norvegicus, UniProt P11275); experiment: Reconstituted enzyme assay, CaMKII; format: biochemical; conditions: Table 6; read-out: Inhibition CAMKII
T2 construct: purchased New England Biolabs
T2 sequence (P11275 1-325 limits assumed): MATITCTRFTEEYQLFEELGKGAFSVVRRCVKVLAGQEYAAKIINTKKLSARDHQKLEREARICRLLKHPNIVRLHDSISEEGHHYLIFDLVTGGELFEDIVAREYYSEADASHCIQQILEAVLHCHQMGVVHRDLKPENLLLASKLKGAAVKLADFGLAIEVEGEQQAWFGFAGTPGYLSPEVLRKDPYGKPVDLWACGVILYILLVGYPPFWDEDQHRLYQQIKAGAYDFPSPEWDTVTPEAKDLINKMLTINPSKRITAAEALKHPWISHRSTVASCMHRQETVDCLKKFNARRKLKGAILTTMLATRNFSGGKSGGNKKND
Experimental: as §1

[6] = tested on: WT mice; experiment: Endotoxin (LPS)-mediated acute lung injury; format: in vivo, mouse; conditions: 2.5 mg/kg IP 1 hour prior to LPS 10 mg/kg IP; 24 hours
Experimental: To confirm the specific role of EC MLCK in the reduced susceptibility of KO mice to endotoxin-mediated lung injury, a representative composition of this invention was used to determine whether pharmacologic inhibition of MLCK would also reduce LPS-induced lung injury. (See, examples 25-26, below.) WT mice were treated with 2.5 mg/kg of a representative MLCK inhibitor (e.g., cpd MW01-022AZ) 1 hour prior to administration of LPS.
Endotoxin-mediated lung injury. LPS (Sigma, St. Louis, Mo.) (10 mg/kg) was administered via intraperitoneal (ip) injection. Animals were allowed to recover for 24 hours prior to determination of lung injury. Control animals received an equivalent volume of sterile saline.
[drawing 161] are shown to be comparatively selective (using assay procedures and data analyses previously described) for inhibition of MLCK and related enzymes such as Rho kinase, and are bioavailable in various other animal models of disease. […] The stimulus in this example was IP injection of 10 mg/kg body weight of the bacterial endotoxin, lipopolysaccharide (LPS). The treatment with MW01-022AZ represents a clinically relevant dose of a kinase inhibitor therapeutic based on prior art with other kinases. Other compositions of this invention, having the structural relationships described and/or illustrated above, can also be employed.
Histologic analysis of lung injury after LPS exposure. […]

[7] = Table 6, read-out: Inhibition KC
[8] = Table 6, read-out: Inhibition MLCK

SMILES | IC50 [3] [µM] | IC50 [1, 7] [µM] | IC50 [2, 8] [µM] | IC50 [5] [µM] | further results
COc1ccc(S(=O)(=O)N(CCO)c2ccccc2CN(C)C/C=C/c2ccc(Cl)cc2)cc1 [Compound 5, KN93, reference compound] | – | – | – | – | IC50 ([1]; γ-[32P]-ATP, synthetic peptide substrate, read-out: IC50 PKC): > 100 µM; IC50 ([2]; γ-[32P]-ATP, synthetic peptide substrate, mean ± SEM, read-out: IC50 MLCK): 9.8 ± 0.7 µM
N=c1cc2c(nn1CCCCCCCCCCC(=O)Nc1ccc(-c3ccccc3)nn1)-c1ccccc1CC2 [MW01-026Z] | < 20 | > 100 | 20 to 50 | > 100 | DAPK inhibitory activity ([3]; comparison among compounds): most potent DAPK inhibitor; percent weight loss in the ischemic hemisphere compared to the contralateral hemisphere ([4]; 5 mg/kg IP 1 hour after carotid ligation, 7 day recovery to P14, mean±SEM, n=7): 8.2±5.5%; mortality ([4]; 5 mg/kg IP, versus vehicle group): no differences in mortality
N=c1ccc(Cl)nn1CCCCCCCCCCC(=O)Nc1ccc(-c2ccccc2)nn1 [MW01-022AZ] | – | – | – | – | LPS-induced lung injury (histology) [6]: no evidence of lung injury; also recorded: close to normal
N=c1cc2c(nn1CCCCCCCCCCC(=O)Nc1cc3c(nn1)-c1ccccc1CC3)-c1ccccc1CC2 [MW01-055V] | 50 to 100 | 50 to 100 | < 20 | – | –
N=c1ccc(-c2ccccc2)nn1CCCCCCCCCCC(=O)Nc1ccc(-c2ccccc2)nn1 [MW01-125AZ] | 20 to 50 | 20 to 50 | > 100 | > 100 | –
